# Values quoted from earlier work in patent publication US9504685B2, “Method for treating a pulmonary hypertension condition” (Gilead Sciences, Inc., priority 2006, dated 2016).
# Molecular target: T1, ETA receptor (Homo sapiens, UniProt P25101)
# T1 sequence (P25101 21-427): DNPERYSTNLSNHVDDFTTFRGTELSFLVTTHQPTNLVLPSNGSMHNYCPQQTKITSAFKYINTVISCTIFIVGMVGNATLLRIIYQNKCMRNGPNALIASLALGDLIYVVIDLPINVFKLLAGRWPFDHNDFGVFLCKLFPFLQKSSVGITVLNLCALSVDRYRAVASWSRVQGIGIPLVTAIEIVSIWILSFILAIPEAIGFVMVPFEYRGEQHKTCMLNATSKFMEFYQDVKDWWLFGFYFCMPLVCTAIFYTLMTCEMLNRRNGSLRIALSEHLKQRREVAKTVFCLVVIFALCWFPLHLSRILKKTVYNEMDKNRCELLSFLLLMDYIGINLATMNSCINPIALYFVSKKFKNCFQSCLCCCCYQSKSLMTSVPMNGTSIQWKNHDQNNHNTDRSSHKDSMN
# Conditions: read-out: affinity for the ETA receptor; cited from earlier work
structure (smiles),measurement,value
COC(c1ccccc1)(c1ccccc1)[C@H](Oc1nc(C)cc(C)n1)C(=O)O [ambrisentan],Ki,~0.012 nM
